Test results published in patent US11420940B2, “4-carboxamido-isoindolinone derivatives as selective parp-1 inhibitors” (NERVIANO MEDICAL SCIENCES S.r.l, priority 2012, dated 2022).

How the values were obtained:
[1] = Pharmacokinetics and oral bioavailability in the mouse; type: in vivo; conditions: 10 mg/kg, oral vs IV dose-normalized AUC
[2] = tested on: Capan-1 human pancreatic cancer tumors; assay: In vivo efficacy as single agent, Capan-1 BRCA-2 mutated mouse model; conditions: 75 mg/kg oral, daily (schedule 1-8 or 1-10)
Text: Balb, athymic Nu/Nu male mice, from Harlan (Italy), were maintained in agreement with the European Communities Council Directive no. 86/609/EEC concerning the protection of animals used for experimental or other scientific purposes, in cages with paper filter cover, food and bedding sterilized and acidified water. Fragments of Capan-1 human pancreatic cancer tumors were implanted subcutaneously. […] Each group included seven animals. The treatment started one day after randomization. Compound of formula (I) was administered by oral route as a methocel suspension at the indicated doses and times. Tumor dimension was measured regularly by calipers during the experiments and tumor mass was calculated as described in Simeoni M. et al., Cancer Res 64, 1094-1101 (2004).

[3] = tested on: BRCA-mutated breast, ovarian and prostate cancer; conditions: 19 patients with BRCA mutations and breast; cited from earlier work

Structure (SMILES) | F on AUC [1] [%] | Max TGI (%) [2] [%] | objective response rate [3] [%]
NC(=O)c1cccc2c1C(=O)N(CCN1CCc3ccccc3C1)C2 [(3), 2-[2-(3,4-dihydro-1H-isoquinolin-2-yl)-ethyl]-3-oxo-2,3-dihydro-1H-isoindole-4-carboxylic acid amide] | 30 |  | 
NC(=O)c1cccc2c1C(=O)N(C1CCN(C3CCCCC3)CC1)C2 [(11), 2-(1-cyclohexyl-piperidin-4-yl)-3-oxo-2,3-dihydro-1H-isoindole-4-carboxylic acid amide] | 100 | 42 | 
NC(=O)c1cccc2c1C(=O)N(C1CCN(Cc3ccoc3)CC1)C2 [(14), 2-(1-furan-3-ylmethyl-piperidin-4-yl)-3-oxo-2,3-dihydro-1H-isoindole-4-carboxylic acid amide] | 57 |  | 
NC(=O)c1cccc2c1C(=O)N(C1CCN(Cc3ccccn3)CC1)C2 [(15), 3-oxo-2-(1-pyridin-2-ylmethyl-piperidin-4-yl)-2,3-dihydro-1H-isoindole-4-carboxylic acid amide] | 68 | 54 | 
NC(=O)c1cccc2c1C(=O)N(C1CCN(Cc3ccc[nH]3)CC1)C2 [(16), 3-oxo-2-[1-(1H-pyrrol-2-ylmethyl)-piperidin-4-yl]-2,3-dihydro-1H-isoindole-4-carboxylic acid amide] | 37 |  | 
O=C(c1cc(Cc2n[nH]c(=O)c3ccccc23)ccc1F)N1CCN(C(=O)C2CC2)CC1 [Olaparib] |  |  | 47
